# Test results as given in PMC7083851, “Extended pharmacodynamic responses observed upon PROTAC-mediated degradation of RIPK2” (Communications Biology, 2020).
# Several values for one entry are separate records, joined by “and”; a condition that tells them apart may be missing. Identical values can stand only once.
# Assays:
# [1] = ChromLogD7.4 high-throughput chromatographic lipophilicity; type: physicochemical
# RIPK2 = RIPK2 (Homo sapiens, UniProt O43353); assay: RIPK2 degradation in human PBMCs (immunoassay); type: cell-based; parameters: endogenous in cells; host or cells: primary human PBMCs from leukodepletion filters (NHSBT); conditions: 24 h
# Description: PBMCs were isolated from leukodepletion filter from platelet aphaeresis supplied by National Health System Blood and Transplant—NHSBT Apheresed at NHBST.
# Before treatment with compound or vehicle, THP1 cells, human and rat PBMCs were counted using Vi-Cell cell counter (Invitrogen) and adjusted to a final cell density of […] using complete growth medium. Cells or whole blood were treated with vehicle (0.1% DMSO) or fixed concentrations of compound up to 1 μM in half log unit increments and incubated for the time period indicated in the figure.
# Where the assessment of cytokines was performed, L18-MDP was added to the cell culture media (1 μg/ml) or to the rat blood samples (100 ng/ml) and samples were incubated for up to 4 h. […] Samples were them spun down at 1000 g and the cell culture supernatant, plasma or serum were collected for cytokines assessment, while cell pellets were used for RIPK2 and/or cIAP1, cIAP2, and XIAP levels analysis via immunoblotting.
# Simple Western immunoassay: Cell lysates were mixed with 5× concentrated master mix (Protein Simple) and denatured at 95 °C on a heat block for 5 min together with the provided ladder (Protein Simple). Antibodies were diluted in the provided buffer as following: anti-RIPK2 (1:10 or 1:50), anti-cIAP1(1:10), anti-cIAP2 (1:10), anti-XIAP (1:10), mouse anti-β-actin (Abcam - 1:1000), rabbit anti-β-actin (Abcam - 1:50) and anti-vinculin (1:100). All reagents (blocking buffer, primary and secondary antibodies, streptavadin, luminol/peroxide, separation matrix, stacking matrix and water) were added to the Protein Simple plate containing the ladder and lysates and the plate was placed in a Protein Simple Western instrument and the Simple Western default size assay protocol was used. […] The area under the peak values obtained for RIPK2, cIAP1, cIAP2 or XIAP were normalized relative to the control protein values.
# In vitro experimental data were analyzed using a 4-parameter logistic equation in GraphPad Prism 5.0.4. to generate an estimate of the half-maximal concentration and maximal degradation, DC50 and Dmax value respectively, for concentration-degradation relationships. Cytokine levels were analyzed in a similar manner to yield IC50 and Imax values. […] Where analysis to a sigmoidal relationship was not possible, the data points are shown as mean ± s.e.m.
# [2] = test system: L18-MDP-induced cytokine release; assay: In vivo L18-MDP acute inflammation model, serum cytokines (TNFα, IL-6, IL-8); parameters: species or system rat; cytokine level (fig 6a) / cytokine level (fig 6b) / cytokine level (fig 6c): unit not given here; conditions: for cytokine level (fig 6a) / cytokine level (fig 6b) / cytokine level (fig 6c): serum, individual rats, beside L18-MDP control;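 on cytokine level (fig 6a): time is length of PROTAC pretreatment before a 2 h L18-MDP challenge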;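 on cytokine level (fig 6b): time is length of PROTAC pretreatment before a 2 h L18-MDP challenge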;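 on cytokine level (fig 6c): time is length of PROTAC pretreatment before a 2 h L18-MDP challenge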
# Description: In vivo L18-MDP administration to rodents results in an acute inflammatory response characterised by the rapid production of inflammatory cytokines. […]. […]. Blood concentrations of 6 and 7 tracked closely and dropped below the LLQ after 24 h.
# . Cytokine levels were determined in serum generated from the terminal blood samples and in tissue lysates as detailed below.
# (§1) Cytokine measurement assay: Cytokine levels were measured in rat plasma or rat PBMCs cell culture supernatants using rat V-Plex TNFα, in human plasma or human PBMCs cell culture supernatants with either TNFα tissue culture or 7-plex kit. Rat serum and tissues samples from the in vivo L18-MDP acute inflammation model were analyzed using the rat TNFα, Il-6 and IL-8 U-Plex kits. All kits provided by Meso Scale Discovery (MSD). Levels of cytokines spontaneously released from human colon biopsies cell culture supernatants were measured using Human IL-1 beta/IL-1F2 DuoSet ELISA (Bio-techne), Human IL-6 ELISA (Immunotools) and Human TNF-alpha DuoSet ELISA (Bio-techne). All samples were processed accordingly to the manufacturer’s instructions. The MSD plates were analyzed using the MSD sector imager 6000 plate reader and cytokines concentration (pg/ml) was obtained by using the MSD DISCOVERY WORKBENCH software version 4.0.12.1
# For in vivo studies, RIPK2:tubulin ratios and cytokine levels from each individual experiment were analysed either using a One-way ANOVA with Dunnet’s post-test or a two way ANOVA using GraphPad Prism 5.0.4 to determine statistical significance with 95% confidence levels.
# [3] = test system: spontaneous IL-1β, IL-6, and TNFα release; assay: Spontaneous cytokine release (IL-1β, IL-6, TNFα) from ulcerative colitis patient intestinal biopsies; type: cell-based, human; conditions: for IL-1b (Ctrl=DMSO = 100) / IL-6 (Ctrl=DMSO = 100) / TNFa (Ctrl=DMSO = 100): individual biopsies, fig 4f
# Description: Colonic biopsies or tissues were obtained during endoscopy or via surgical resection from Crohn’s Disease (CD) or Ulcerative Colitis (UC) patients (St Bartholomew’s Hospital, London). All patients gave informed written consent. For surgical specimens, the mucosa was dissected away from the submucosa and cut into pieces of ~10–20 mg. […] The supernatants were collected for cytokine measurement as detailed in cytokines assay section while tissues were used to determine RIPK2 levels.
# as §1
# RIPK2, sequence (O43353 whole entry): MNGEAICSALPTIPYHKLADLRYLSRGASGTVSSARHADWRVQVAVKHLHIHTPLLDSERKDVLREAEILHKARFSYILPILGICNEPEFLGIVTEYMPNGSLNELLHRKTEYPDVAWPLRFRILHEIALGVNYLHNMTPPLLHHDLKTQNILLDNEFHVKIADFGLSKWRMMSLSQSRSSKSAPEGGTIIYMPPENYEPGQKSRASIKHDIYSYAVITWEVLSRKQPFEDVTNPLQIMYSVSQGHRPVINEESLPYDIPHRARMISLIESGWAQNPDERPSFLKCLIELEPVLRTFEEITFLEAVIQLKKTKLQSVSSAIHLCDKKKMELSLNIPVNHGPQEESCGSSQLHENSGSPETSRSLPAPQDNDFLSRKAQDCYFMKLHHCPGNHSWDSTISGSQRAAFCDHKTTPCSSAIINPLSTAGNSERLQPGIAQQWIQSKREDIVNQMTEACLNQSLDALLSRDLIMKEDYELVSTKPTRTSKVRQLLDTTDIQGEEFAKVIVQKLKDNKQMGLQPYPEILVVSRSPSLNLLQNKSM
compound,measurement,setting,value
CN[C@@H](C)C(=O)N[C@H](C(=O)N1CCC[C@H]1c1nc(C(=O)c2ccc(F)cc2)cs1)C1CCN(C(=O)c2cnc(N3CCN(CCOc4cc5ncnc(Nc6n[nH]c(C)c6C)c5cc4S(=O)(=O)C(C)(C)C)CC3)nc2)CC1 [PROTAC 4],ChromLogD7.4,[1],4.2
same,"hPBMC pDC50 ± SEM, 24 h (n = 3)",RIPK2; RIPK2 degradation,7.9 ± 0.2
same,"hPBMC Dmax ± SEM, 24 h (n = 3)",RIPK2; maximal RIPK2 degradation,69.2 ± 11.5%
CN[C@@H](C)C(=O)N[C@H](C(=O)N1C[C@@H](NC(=O)c2cnc(N3CCN(CCCOc4cc5ncnc(Nc6n[nH]c(C)c6C)c5cc4S(=O)(=O)C(C)(C)C)CC3)cn2)C[C@H]1C(=O)Nc1c(F)cccc1F)C(C)(C)C [PROTAC 6],inhibition of serum cytokines,"[2]; rat, 0.3 mg/kg SC, intravenous L18-MDP challenge, first three days",> 75%
same,cytokine level (fig 6a),[2]; time 6 h,18.49 (2×) and 16.66 and 19.87 and 20.63
same,cytokine level (fig 6b),[2]; time 6 h,1.67 and 2.89 and 2.19 and 1.98 and 1.58
same,cytokine level (fig 6c),[2]; time 6 h,4 (3×) and 5 and 3
same,cytokine level (fig 6a),[2]; time 24 h,17.80 and 19.20 and 17.38 and 15.28 and 17.94
same,cytokine level (fig 6b),[2]; time 24 h,3.64 and 5.77 and 5.56 and 2.08 and 8.31
same,cytokine level (fig 6c),[2]; time 24 h,1 (3×) and 2 (2×)
same,cytokine level (fig 6a),[2]; time 72 h,19.88 and 25.30 and 22.33 and 26.08 and 26.21
same,cytokine level (fig 6b),[2]; time 72 h,18.18 and 42.78 and 20.80 and 21.32 and 12.42
same,cytokine level (fig 6c),[2]; time 72 h,19 and 9 and 13 and 7 and 24
same,cytokine level (fig 6a),[2]; time 240 h,63.85 and 82.37 and 43.93 and 24.16 and 36.40
same,cytokine level (fig 6b),[2]; time 240 h,64.23 and 50.00 and 38.00 and 38.38 and 36.37
same,cytokine level (fig 6c),[2]; time 240 h,28 and 68 and 85 and 81 and 23
same,cytokine level (fig 6a),[2]; time 408 h,65.92 and 78.49 and 54.66 and 71.18 and 46.33
same,cytokine level (fig 6b),[2]; time 408 h,61.45 and 97.28 and 63.67 and 57.26 and 26.18
same,cytokine level (fig 6c),[2]; time 408 h,30 and 38 and 69 and 58 and 40
same,IC50,"[3]; Homo sapiens, 24 h, read-out: IC50 inhibition of spontaneous cytokine release",1 to 3 nM
same,IL-1b (Ctrl=DMSO = 100),[3]; compound concentration 0.05 nM,133 and 73 and 55
same,IL-6 (Ctrl=DMSO = 100),[3]; compound concentration 0.05 nM,93 and 184 and 79 and 87 and 89 and 91
same,TNFa (Ctrl=DMSO = 100),[3]; compound concentration 0.05 nM,89 and 94 (2×) and 80 and 99
same,IL-1b (Ctrl=DMSO = 100),[3]; compound concentration 0.5 nM,74 and 22 and 52 and 46
same,IL-6 (Ctrl=DMSO = 100),[3]; compound concentration 0.5 nM,92 and 83 and 67 and 77 and 80 and 11 and 42
same,TNFa (Ctrl=DMSO = 100),[3]; compound concentration 0.5 nM,130 and 71 and 83 and 70 and 41 and 86
same,IL-1b (Ctrl=DMSO = 100),[3]; compound concentration 5 nM,49 and 88 and 62 (2×) and 28 and 58 and 77 and 41 and 55 and 30 and 27 (2×) and 11 and 37 and 67 and 54 and 44 and 40 and 39
same,IL-6 (Ctrl=DMSO = 100),[3]; compound concentration 5 nM,56 and 59 and 11 and 74 and 96 and 85 and 64 and 76 (2×) and 88 and 71 and 79 and 77 and 55 and 44 and 53 and 86 and 25 and 29
same,TNFa (Ctrl=DMSO = 100),[3]; compound concentration 5 nM,36 and 47 and 58 and 65 and 88 and 75 and 56 and 78 and 49 and 67 (2×) and 48 and 31 and 86 and 41 and 66 and 57
same,IL-1b (Ctrl=DMSO = 100),[3]; compound concentration 50 nM,38 and 22 and 12 (2×) and 95 and 26 and 24 and 43 and 15 and 68 and 21 and 1 and 23 and 39 and 18 and 7 and 11 and 34
same,IL-6 (Ctrl=DMSO = 100),[3]; compound concentration 50 nM,60 and 39 and 68 and 67 and 21 (2×) and 10 and 19 and 76 and 22 and 48 (2×) and 75 and 36 and 35 and 62 and 11 and 24
same,TNFa (Ctrl=DMSO = 100),[3]; compound concentration 50 nM,28 and 33 (2×) and 29 (2×) and 4 and 49 and 47 and 53 and 35 and 57 (2×) and 60 and 15 and 56 and 46 and 19 and 25 and 65
